Broadly, the IC50 is the concentration that inhibits the measured activity by half. Low readings indicate inhibition by little substance, high ones a need for much substance.

The record followed here is patent US4322339A, “Pharmacologically active peptides” (Eli Lilly and Company, priority 1980, dated 1982).

One test deals with mouse (Cox Standard). Nature of the test: mouse hot plate test (mouse jump). Format: in vivo. Particulars: subcutaneous injection, hot plate 52° C., 15 minutes after administration.
The target of a further test is T1, enkephalin (δ) receptor (Mus musculus, UniProt P32300).
T1 construct: from tissue; host or cells: isolated mouse vas deferens (Cox mice, 30-40 g)
Nature of the test: mouse vas deferens assay. It is filed as tissue-based. The settings on record: concentration causing depression of 50% of the electrically evoked contraction; field stimulation 0.15 Hz, 1 msec., 40 V; 37° C. As to the method:
In the mouse vas deferens test, single mouse vas deferens from mature mice (Cox, 30-40 g.) are suspended in 3 ml. of modified Kreb's solution aerated with 95% O2 -5% CO2 and maintained at 37° C. The twitch induced by field stimulation (0.15 Hz, 1 msec., 40 V) is recorded on a polygraph via an isometric transducer. The test compound is added to the bath in 20 to 30 μl. aliquots. A dose-response curve is constructed by cumulative addition of appropriate amounts of the compound to the bath. Comparison of relative agonist potency at the δ receptor is made on the basis of IC50 values (concentration causing depression of 50% of the electrically evoked contraction).

T1 sequence (P32300 whole entry): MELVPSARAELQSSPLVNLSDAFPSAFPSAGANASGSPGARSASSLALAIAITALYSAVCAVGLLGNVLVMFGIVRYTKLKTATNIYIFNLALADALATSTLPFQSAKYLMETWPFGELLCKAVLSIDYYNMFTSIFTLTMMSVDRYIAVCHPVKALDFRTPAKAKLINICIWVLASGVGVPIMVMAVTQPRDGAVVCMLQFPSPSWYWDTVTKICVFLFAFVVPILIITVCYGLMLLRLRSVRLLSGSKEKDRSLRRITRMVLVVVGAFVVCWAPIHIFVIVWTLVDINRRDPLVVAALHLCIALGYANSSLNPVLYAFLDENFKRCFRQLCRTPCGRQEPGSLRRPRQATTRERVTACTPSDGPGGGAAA

Regarding `CSCC[C@@H](C(N)=O)N(C)C(=O)[C@H](Cc1cccc(Br)c1)NC(=O)CNC(=O)[C@@H](C)NC(=O)[C@@H](N)Cc1ccc(O)cc1` [Br, L-Tyrosyl-D-alanyl-glycyl-L-m-bromophenylalanyl-L-(N^α -methyl)methioninamide], the “Mouse Jump ED50” value in the test with mouse (Cox Standard) (Cox Standard mice) is 0.36 mg/kg. The compound further yielded a 50% inhibitory concentration (IC50) against enkephalin (δ) receptor of 0.49 nM.

On to `CSCC[C@@H](C(N)=O)N(C)C(=O)[C@H](Cc1cccc(C(F)(F)F)c1)NC(=O)CNC(=O)[C@@H](C)NC(=O)[C@@H](N)Cc1ccc(O)cc1` [CF3, L-Tyrosyl-D-alanyl-glycyl-L-m-trifluoro-methylphenylalanyl-L-(N^α-methyl)methioninamide], for which the “Mouse Jump ED50” value in the test on mouse (Cox Standard) (Cox Standard mice) was 0.33 mg/kg. On enkephalin (δ) receptor, this compound showed an IC50 of 1.78 nM. Taken in the same sequence, the figures for `CSCC[C@@H](C(N)=O)N(C)C(=O)[C@H](Cc1cccc(C)c1)NC(=O)CNC(=O)[C@@H](C)NC(=O)[C@@H](N)Cc1ccc(O)cc1` [CH3, L-Tyrosyl-D-alanyl-glycyl-L-m-methylphenylalanyl-L-(N^α -methyl)methioninamide] were 0.33 mg/kg and 2.73 nM.

As for `CSCC[C@@H](C(N)=O)N(C)C(=O)[C@H](Cc1cccc(Cl)c1)NC(=O)CNC(=O)[C@@H](C)NC(=O)[C@@H](N)Cc1ccc(O)cc1` [Cl, L-Tyrosyl-D-alanyl-glycyl-L-m-chlorophenylalanyl-L-(N^α -methyl)methioninamide], the “Mouse Jump ED50” value with mouse (Cox Standard) (Cox Standard mice) is 0.11 mg/kg. The compound also gave an IC50 against enkephalin (δ) receptor of 0.71 nM. Taken in the same sequence, the figures for `CSCC[C@@H](C(N)=O)N(C)C(=O)[C@H](Cc1ccccc1)NC(=O)CNC(=O)[C@@H](C)NC(=O)[C@@H](N)Cc1ccc(O)cc1` [H, reference compound] were 0.36 mg/kg and 12.2 nM. On enkephalin (δ) receptor, `CSCC[C@@H](C(N)=O)N(C)C(=O)[C@H](Cc1cccc(I)c1)NC(=O)CNC(=O)[C@@H](C)NC(=O)[C@@H](N)Cc1ccc(O)cc1` [I, H-L-Tyr-D-Ala-Gly-L-Phe(I)-L-(N-Me)Met-NH2] gave an IC50 of 2.1 nM. That is a single-digit nanomolar value. Regarding `COc1cccc(C[C@H](NC(=O)CNC(=O)[C@@H](C)NC(=O)[C@@H](N)Cc2ccc(O)cc2)C(=O)N(C)[C@@H](CCSC)C(N)=O)c1` [OMe, L-Tyrosyl-D-alanyl-glycyl-L-m-methoxyphenylalanyl-L-(N^α -methyl)methioninamide], the “Mouse Jump ED50” value in the test on mouse (Cox Standard) (run using Harlan ND4 mice) came out at 0.15 mg/kg. On enkephalin (δ) receptor, this compound returned an IC50 of 2.92 nM.
